Measurements as given in ChEMBL document CHEMBL5537122, “Design, synthesis, and biological evaluation of 4-(2-fluorophenoxy)-7-methoxyquinazoline derivatives as dual EGFR/c-Met inhibitors for the treatment of NSCLC” (Eur J Med Chem, 2024).

Tests used:
A549 [1] = experiment: Induction in apoptosis in human A549 cells overexpressing c-MET assessed as early apoptotic cells at 1 uM incubated for 24 hrs by Annexin V-FITC/Propidium Iodide staining based flow cytometry analysis (reference value: 7.27 %); assay type: functional
NCI-H1975 [2] = experiment: Induction in apoptosis in human NCI-H1975 cells assessed as necrotic cells at 1 uM incubated for 24 hrs by Annexin V-FITC/Propidium Iodide staining based flow cytometry analysis (reference value: 1.42 %); assay type: functional
A549 [3] = experiment: Induction in apoptosis in human A549 cells overexpressing c-MET assessed as necrotic cells at 1 uM incubated for 24 hrs by Annexin V-FITC/Propidium Iodide staining based flow cytometry analysis (reference value: 3.22 %); assay type: functional
[4] = Induction in apoptosis in human L02 cells assessed as viable cells at 1 uM incubated for 24 hrs by Annexin V-FITC/Propidium Iodide staining based flow cytometry analysis (reference value: 92.75 %); assay type: toxicity, cell-based; conditions: read-out: Activity
A549 [5] = experiment: Induction of cell cycle arrest in human A549 cells overexpressing c-MET assessed as accumulation of cells at S phase at 1 uM incubated for 24 hrs by RNase A/propidium iodide staining based flow cytometric analysis (reference value: 37.87 %); assay type: functional
A549 [6] = experiment: Induction of cell cycle arrest in human A549 cells overexpressing c-MET assessed as accumulation of cells at G1/G0 phase at 1 uM incubated for 24 hrs by RNase A/propidium iodide staining based flow cytometric analysis (reference value: 49.24 %); assay type: functional
NCI-H1975 [7] = experiment: Induction in apoptosis in human NCI-H1975 cells assessed as late apoptotic cells at 1 uM incubated for 24 hrs by Annexin V-FITC/Propidium Iodide staining based flow cytometry analysis (reference value: 4.46 %); assay type: functional
A549 [8] = experiment: Induction in apoptosis in human A549 cells overexpressing c-MET assessed as late apoptotic cells at 1 uM incubated for 24 hrs by Annexin V-FITC/Propidium Iodide staining based flow cytometry analysis (reference value: 7.59 %); assay type: functional
NCI-H1975 [9] = experiment: Induction in apoptosis in human NCI-H1975 cells assessed as early apoptotic cells at 1 uM incubated for 24 hrs by Annexin V-FITC/Propidium Iodide staining based flow cytometry analysis (reference value: 2.54 %); assay type: functional
L02 [10] = experiment: Induction in apoptosis in human L02 cells assessed as necrotic cells at 1 uM incubated for 24 hrs by Annexin V-FITC/Propidium Iodide staining based flow cytometry analysis (reference value: 6.63 %); assay type: toxicity, cell-based; conditions: l02, 24 h
[11] = Hemolytic activity in sheep erythrocytes at 64 ug/ml incubated for 2 hr by UV spectrophotometer relative to control; assay type: toxicity, cell-based, Ovis aries, Erythrocyte; conditions: at 64 µg/mL, read-out: Activity
A549 [12] = experiment: Induction in apoptosis in human A549 cells overexpressing c-MET assessed as viable cells at 1 uM incubated for 24 hrs by Annexin V-FITC/Propidium Iodide staining based flow cytometry analysis (reference value: 81.92 %); assay type: functional; conditions: read-out: Activity
NCI-H1975 [13] = experiment: Induction in apoptosis in human NCI-H1975 cells assessed as viable cells at 1 uM incubated for 24 hrs by Annexin V-FITC/Propidium Iodide staining based flow cytometry analysis (reference value: 91.58 %); assay type: functional; conditions: read-out: Activity
L02 [14] = experiment: Induction in apoptosis in human L02 cells assessed as late apoptotic cells at 1 uM incubated for 24 hrs by Annexin V-FITC/Propidium Iodide staining based flow cytometry analysis (reference value: 0.36 %); assay type: toxicity, cell-based; conditions: l02, 24 h
L02 [15] = experiment: Induction in apoptosis in human L02 cells assessed as early apoptotic cells at 1 uM incubated for 24 hrs by Annexin V-FITC/Propidium Iodide staining based flow cytometry analysis (reference value: 0.26 %); assay type: toxicity, cell-based; conditions: l02, 24 h
Homo sapiens = species on record: Homo sapiens; experiment: Inhibition of EGFR T790/C797S mutant (unknown origin) at 10 uM relative to control
[16] = molecular target: Epidermal growth factor receptor (Homo sapiens, UniProt P00533, L858R); experiment: biochemical
Epidermal growth factor receptor (Homo sapiens, UniProt P00533, L858R), sequence (P00533 25-1210 L858R limits assumed): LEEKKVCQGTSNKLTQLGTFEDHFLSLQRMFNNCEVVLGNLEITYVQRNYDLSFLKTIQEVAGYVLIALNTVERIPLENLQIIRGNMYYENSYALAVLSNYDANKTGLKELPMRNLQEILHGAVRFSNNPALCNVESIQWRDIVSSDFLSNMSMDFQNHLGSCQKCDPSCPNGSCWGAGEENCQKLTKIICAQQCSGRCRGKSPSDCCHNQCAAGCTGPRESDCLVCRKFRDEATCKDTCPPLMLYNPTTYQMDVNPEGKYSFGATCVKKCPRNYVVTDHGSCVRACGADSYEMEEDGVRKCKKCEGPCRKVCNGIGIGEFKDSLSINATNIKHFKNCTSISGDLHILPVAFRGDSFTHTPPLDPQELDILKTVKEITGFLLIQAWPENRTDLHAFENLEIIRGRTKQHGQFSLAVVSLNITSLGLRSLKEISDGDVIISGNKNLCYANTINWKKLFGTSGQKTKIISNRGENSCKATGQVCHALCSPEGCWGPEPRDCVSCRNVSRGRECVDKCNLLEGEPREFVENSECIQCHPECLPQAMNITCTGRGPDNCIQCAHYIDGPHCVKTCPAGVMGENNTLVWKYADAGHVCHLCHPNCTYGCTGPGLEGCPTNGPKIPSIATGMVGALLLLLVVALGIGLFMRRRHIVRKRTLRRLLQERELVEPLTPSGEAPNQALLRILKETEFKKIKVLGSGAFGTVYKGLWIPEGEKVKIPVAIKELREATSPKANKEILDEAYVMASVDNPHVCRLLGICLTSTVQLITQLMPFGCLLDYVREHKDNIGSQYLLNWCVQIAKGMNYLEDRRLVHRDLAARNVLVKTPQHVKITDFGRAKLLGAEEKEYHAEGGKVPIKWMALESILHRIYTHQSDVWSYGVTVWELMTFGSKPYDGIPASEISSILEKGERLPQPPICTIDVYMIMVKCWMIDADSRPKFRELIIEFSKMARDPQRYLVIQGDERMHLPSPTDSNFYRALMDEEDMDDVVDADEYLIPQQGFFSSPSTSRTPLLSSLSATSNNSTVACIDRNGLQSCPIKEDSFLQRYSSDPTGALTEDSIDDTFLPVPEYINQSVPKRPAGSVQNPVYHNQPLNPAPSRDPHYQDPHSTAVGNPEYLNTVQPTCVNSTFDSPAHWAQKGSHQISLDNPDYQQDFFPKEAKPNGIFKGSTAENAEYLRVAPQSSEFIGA

NCI-H1975 [17] = experiment: Antiproliferative activity against human NCI-H1975 cells overexpressing c-Met and EGFR assessed as reduction in cell viability incubated for 72 hrs by MTT assay; assay type: functional, cell-based; conditions: NCI-H1975, 72 h
[18] = molecular target: Hepatocyte growth factor receptor (Homo sapiens, UniProt P08581); experiment: biochemical
Hepatocyte growth factor receptor, sequence (P08581 whole entry): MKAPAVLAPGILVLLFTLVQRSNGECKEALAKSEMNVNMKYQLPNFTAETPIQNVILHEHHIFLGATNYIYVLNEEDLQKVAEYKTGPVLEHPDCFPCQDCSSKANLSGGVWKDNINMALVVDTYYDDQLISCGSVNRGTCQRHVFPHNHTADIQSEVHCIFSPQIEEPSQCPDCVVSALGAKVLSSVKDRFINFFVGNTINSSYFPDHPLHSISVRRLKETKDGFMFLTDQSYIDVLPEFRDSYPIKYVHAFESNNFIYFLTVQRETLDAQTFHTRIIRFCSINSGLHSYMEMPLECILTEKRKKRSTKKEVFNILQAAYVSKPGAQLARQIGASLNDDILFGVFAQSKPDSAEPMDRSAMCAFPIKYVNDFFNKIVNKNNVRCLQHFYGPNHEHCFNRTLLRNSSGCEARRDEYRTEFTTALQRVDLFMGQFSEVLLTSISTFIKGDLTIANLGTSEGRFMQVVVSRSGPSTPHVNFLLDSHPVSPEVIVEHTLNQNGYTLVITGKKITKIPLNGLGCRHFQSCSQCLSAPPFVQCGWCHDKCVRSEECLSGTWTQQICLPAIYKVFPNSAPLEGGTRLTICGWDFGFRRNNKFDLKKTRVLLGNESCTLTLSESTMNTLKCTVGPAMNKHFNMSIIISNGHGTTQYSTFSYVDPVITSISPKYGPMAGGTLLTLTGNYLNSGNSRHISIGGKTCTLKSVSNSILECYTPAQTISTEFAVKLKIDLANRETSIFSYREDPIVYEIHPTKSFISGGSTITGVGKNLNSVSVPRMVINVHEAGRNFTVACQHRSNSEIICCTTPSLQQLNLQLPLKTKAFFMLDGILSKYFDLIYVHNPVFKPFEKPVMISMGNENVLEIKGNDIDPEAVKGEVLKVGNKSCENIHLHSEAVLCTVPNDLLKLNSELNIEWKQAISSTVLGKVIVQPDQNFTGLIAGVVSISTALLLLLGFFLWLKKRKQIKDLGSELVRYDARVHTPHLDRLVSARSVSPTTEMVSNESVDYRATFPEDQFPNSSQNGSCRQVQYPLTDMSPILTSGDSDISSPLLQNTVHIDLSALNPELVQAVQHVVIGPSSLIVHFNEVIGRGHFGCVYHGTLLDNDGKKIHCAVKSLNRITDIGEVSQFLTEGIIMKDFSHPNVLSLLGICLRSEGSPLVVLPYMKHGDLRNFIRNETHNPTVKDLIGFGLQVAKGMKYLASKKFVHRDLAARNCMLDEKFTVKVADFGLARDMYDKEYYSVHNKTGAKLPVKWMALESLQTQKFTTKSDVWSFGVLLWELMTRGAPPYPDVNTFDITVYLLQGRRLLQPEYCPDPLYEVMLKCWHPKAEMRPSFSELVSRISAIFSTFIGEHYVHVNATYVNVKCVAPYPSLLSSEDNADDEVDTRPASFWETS
Description: Inhibition of N-terminal GST tagged human recombinant c-Met (956 to end residues) expressed in baculovirus infected Sf9 cells using Poly (4:1 Glu, Tyr) as substrate incubated for 60 mins in presence of ATP by ADP-Glo luminescent assay

PC-9 = experiment: Antiproliferative activity against human PC-9 cells overexpressing c-Met and EGFR assessed as reduction in cell viability incubated for 72 hrs by MTT assay; assay type: functional, cell-based; conditions: PC-9, 72 h
[19] = molecular target: Epidermal growth factor receptor (Homo sapiens, UniProt P00533); experiment: biochemical
Epidermal growth factor receptor (Homo sapiens, UniProt P00533), sequence (P00533 whole entry): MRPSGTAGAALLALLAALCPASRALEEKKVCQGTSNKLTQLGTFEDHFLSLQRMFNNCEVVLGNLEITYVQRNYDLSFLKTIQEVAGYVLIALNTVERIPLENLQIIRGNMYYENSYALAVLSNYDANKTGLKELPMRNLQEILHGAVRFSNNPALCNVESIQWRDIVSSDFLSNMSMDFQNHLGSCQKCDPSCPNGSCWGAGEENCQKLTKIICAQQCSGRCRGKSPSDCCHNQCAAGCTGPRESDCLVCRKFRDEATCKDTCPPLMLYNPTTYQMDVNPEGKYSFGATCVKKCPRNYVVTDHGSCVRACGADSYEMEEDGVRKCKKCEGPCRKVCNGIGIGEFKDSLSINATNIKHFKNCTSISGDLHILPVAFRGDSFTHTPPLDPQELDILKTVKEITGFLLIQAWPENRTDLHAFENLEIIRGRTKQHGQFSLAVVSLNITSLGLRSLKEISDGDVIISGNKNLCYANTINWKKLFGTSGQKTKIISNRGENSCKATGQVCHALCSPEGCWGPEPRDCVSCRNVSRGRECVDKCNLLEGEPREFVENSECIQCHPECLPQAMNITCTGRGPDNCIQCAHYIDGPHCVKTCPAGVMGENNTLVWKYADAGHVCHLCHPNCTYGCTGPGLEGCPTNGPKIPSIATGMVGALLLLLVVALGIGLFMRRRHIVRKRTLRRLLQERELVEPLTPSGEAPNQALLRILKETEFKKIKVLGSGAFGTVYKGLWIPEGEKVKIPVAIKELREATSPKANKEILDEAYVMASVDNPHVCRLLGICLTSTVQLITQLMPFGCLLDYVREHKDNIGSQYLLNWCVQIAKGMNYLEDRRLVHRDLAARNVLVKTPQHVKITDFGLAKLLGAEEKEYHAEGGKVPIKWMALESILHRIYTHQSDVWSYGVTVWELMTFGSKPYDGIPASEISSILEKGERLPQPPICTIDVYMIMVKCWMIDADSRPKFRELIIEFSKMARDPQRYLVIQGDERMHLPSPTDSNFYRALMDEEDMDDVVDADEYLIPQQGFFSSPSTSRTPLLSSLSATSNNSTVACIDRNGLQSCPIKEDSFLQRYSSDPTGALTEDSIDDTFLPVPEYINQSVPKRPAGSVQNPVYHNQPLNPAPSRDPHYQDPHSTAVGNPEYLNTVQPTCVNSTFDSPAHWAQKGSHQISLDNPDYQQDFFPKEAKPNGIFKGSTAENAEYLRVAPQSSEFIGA
Description: Inhibition of N-terminal GST tagged human recombinant EGFR (695 to end residues) expressed in baculovirus infected Sf9 cells using Poly (4:1 Glu, Tyr) as substrate incubated for 60 mins in presence of ATP by ADP-Glo luminescent assay

A549 [20] = experiment: Antiproliferative activity against human A549 cells overexpressing c-Met and EGFR assessed as reduction in cell viability incubated for 72 hrs by MTT assay; assay type: functional, cell-based; conditions: A549, 72 h

Compound	IC50 [16] [nM]	IC50 (NCI-H1975 [17]) [nM]	IC50 [18] [nM]	IC50 (PC-9) [nM]	IC50 [19] [nM]	IC50 (A549 [20]) [nM]	further results
CN(C)C/C=C/C(=O)Nc1cc2c(Nc3ccc(F)c(Cl)c3)ncnc2cc1O[C@H]1CCOC1 [AFATINIB]	–	–	–	–	–	–	Activity (A549 [1]): 9.36%; Activity (NCI-H1975 [2]): 1.88%; Activity (A549 [3]): 5.8%; viability at 24 h, 1 µM [4]: 95.8%; Activity (A549 [5]): 36.86%; Activity (A549 [6]): 52.24%; Activity (NCI-H1975 [7]): 6.17%; Activity (A549 [8]): 12.21%; Activity (NCI-H1975 [9]): 2.21%; Activity (L02 [10]): 3.78%; hemolysis at 2 h, 64 ug/ml [11]: < 5%; viability at 1 µM (A549 [12]): 72.6%; viability at 1 µM (NCI-H1975 [13]): 89.7%; Activity (L02 [14]): 0.26%; Activity (L02 [15]): 0.19%
COc1cc2c(Oc3ccc(NC(=O)C4(C(=O)Nc5ccc(F)cc5)CC4)cc3F)ccnc2cc1OCCCN1CCOCC1	–	–	–	–	–	–	inhibition (Homo sapiens): < 50%
C=CC(=O)Nc1cc2c(Oc3ccc(NC(=O)CCCc4ccc(C)cc4)cc3F)ncnc2cc1OC	1470	430	394	7670	1790	5210	–
C/C=C/C(=O)Nc1cc2c(Oc3ccc(NC(=O)CCCc4ccc(C)cc4)cc3F)ncnc2cc1OC	> 10000	9490	531	8400	7650	4560	–
C=CC(=O)Nc1cc2c(Oc3ccc(NC(=O)CCCc4ccc(F)cc4)cc3F)ncnc2cc1OC	1070	8210	355	4560	782	2070	–
C/C=C/C(=O)Nc1cc2c(Oc3ccc(NC(=O)CCCc4ccc(F)cc4)cc3F)ncnc2cc1OC	5720	4780	670	2310	4540	> 50000	–
C=CC(=O)Nc1cc2c(Oc3ccc(NC(=O)NCCc4csc(Br)c4)cc3F)ncnc2cc1OC	1510	6070	253	3640	2070	4080	–
COc1cc2ncnc(Oc3ccc(NC(=O)CCCc4ccc(F)cc4)cc3F)c2cc1NC(=O)CCC(C)C	> 10000	12000	712	> 50000	> 10000	> 50000	–
C=CC(=O)Nc1cc2c(Oc3ccc(NC(=O)NCCC4CCCCC4)cc3F)ncnc2cc1OC	1390	4260	88	1680	1280	1570	–
